For assay [1], the system named is mouse eyes treated with −15D spectacle lens. Description: spectacle lens-induced myopia in mice, axial length and refractive error. The assay is classed as in vivo. Particulars: lens with 0.1% drug; for axial length: vs lens treated eyes; for refractive error: infrared photorefractor. On the procedure: Topical applications were administered to both eyes at the same time each day (approximately 9:00 AM) commencing on the 12th day (initiation of spectacle lens treatment). A compatible drug level was determined prior to the in vivo use in a tissue culture study with mouse scleral fibroblasts. […] This treatment schedule continued for four weeks starting on post-natal day 12 continued until post-natal day 42. All measurements were taken at post-natal day 42, the equivalent of 4 weeks of spectacle lens wear.
Each eye was refracted every week to measure the refractive error using automated infrared photorefraction as described in Barathi, V. A., Beuerman, R. W., Schaeffel, F., 2009a, “Effects of unilateral topical atropine on binocular pupil responses and eye growth in mice”, Vision Res 49, 383-387. By using Optical Low Coherence Interferometry (OLCI, AC Master, Carl-Zeiss), the axial length of the eye was measured in-vivo as described in Yin G C, Gentle A, McBrien N A, “Muscarinic antagonist control of myopia: a molecular search for the M1 receptor in chick”, Mol. Vis. 2004; 13(10):787-93 and Barathi, V. A., Boopathi, V. G., Yap, E. P., Beuerman, R. W., 2008, “Two models of experimental myopia in the mouse”, Vision Res 48, 904-916. […] Differences of refractive power and axial length between eyes were calculated. Independent t-tests were used to compare experimental and control eyes in wild type and TGM2-deleted or M1-M5 mutant mice.
Right eyes were experimental and left eyes served as contra-lateral control. In vivo axial length was measured at 2 weeks and 4 weeks after treatment. […] Automated infrared photorefractor was used to measure the refractive error measurements.

The next assay has as its target T1, hM5 (Homo sapiens, UniProt P08912).
T1 sequence (P08912 1-532): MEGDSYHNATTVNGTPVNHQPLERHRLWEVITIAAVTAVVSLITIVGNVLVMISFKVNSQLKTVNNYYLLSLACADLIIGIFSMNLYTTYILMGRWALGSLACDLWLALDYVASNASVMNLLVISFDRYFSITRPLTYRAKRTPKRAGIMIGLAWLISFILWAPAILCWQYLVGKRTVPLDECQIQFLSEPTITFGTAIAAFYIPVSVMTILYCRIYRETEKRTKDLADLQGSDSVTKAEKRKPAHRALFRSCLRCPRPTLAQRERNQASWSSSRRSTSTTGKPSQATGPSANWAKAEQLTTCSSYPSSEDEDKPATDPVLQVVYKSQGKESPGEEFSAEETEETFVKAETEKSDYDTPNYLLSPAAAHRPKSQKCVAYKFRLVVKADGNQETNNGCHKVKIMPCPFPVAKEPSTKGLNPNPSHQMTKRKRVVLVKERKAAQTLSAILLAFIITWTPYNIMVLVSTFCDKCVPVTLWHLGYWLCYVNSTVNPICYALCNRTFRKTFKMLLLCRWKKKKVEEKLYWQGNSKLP
Description: himbacine binding to cloned muscarinic receptor subtypes. Particulars: cloned receptor subtype; data not shown.

The subject of assay [2] is TG-1. Put plainly: Western blot of TG proteins in mouse scleral fibroblasts after muscarinic agents. Particulars: 0.01-10 μM for 5 days. The assay is classed as cell-based. In general terms: A western blot detects proteins with antibodies after separation by electrophoresis.
The next assay has as its system TG-3. The assay is described as above. The assay is classed as cell-based. Particulars: 0.01-10 μM for 5 days.
For assay [3], the system named is TG-1. Description: Western blot of TG proteins in human scleral fibroblasts after muscarinic agents. The assay is classed as cell-based. Particulars: 0.01-10 μM for 5 days.

Each structure is given as a SMILES string.

On to `C[C@@H]1OC(=O)[C@H]2C[C@H]3CCCC[C@@H]3[C@@H](/C=C/[C@H]3CCC[C@H](C)N3C)[C@@H]12` [himbacine], for which, in assay [1] (2 weeks and 4 weeks), the “reduction in the mouse myopia progression, among all the drugs” value is “most significant amount of reduction” and the axial length entry is given as “significantly reduced”. Further, in assay [1], the refractive error entry is “shifted from myopic to hyperoic”. Also, at hM5, the Kd (usually the constant that tells how readily two partners part at equilibrium) is 296 nM.
Regarding `CN1[C@@H]2CC[C@H]1C[C@@H](OC(=O)C(CO)c1ccccc1)C2` (stereo partly drawn) [atropine], in assay [1] (2 weeks and 4 weeks), the axial length result is given as “significantly reduced”. The refractive error entry in assay [1] was “shifted from myopic to hyperoic”. The TG-1 protein level result in the assay on TG-1 [2] and with TG-1 [3] was “reduced” each time. Moreover, the TG-3 protein level result with TG-3 is “increased”.

These data come from patent publication US20140050779A1, “[…]-2 INHIBITORS AND USES THEREOF” (SINGAPORE HEALTH SERVICES PTE. LTD., priority 2011, published 2014).
